What was measured:
[1] = molecular target: T1, co-expressed N and C halves of ABCR (Homo sapiens, UniProt P78363); assay: 8-azido-ATP photoaffinity labeling of membranes from transfected cells; type: binding; conditions: 1 mM ATP added prior to labeling with 1.5 μM 8-azido-[α-32P]ATP; FIG. 5A lane 4; C-half labeled
T1 construct: N-half (amino acids 1-1325) and C-half (amino acids 1326-2273) of ABCR; added initiator Met (ATG in the forward primer, read by me) (N); made in house; host or cells: COS-1 (co-transfection)
T1 sequence (P78363 1-1325): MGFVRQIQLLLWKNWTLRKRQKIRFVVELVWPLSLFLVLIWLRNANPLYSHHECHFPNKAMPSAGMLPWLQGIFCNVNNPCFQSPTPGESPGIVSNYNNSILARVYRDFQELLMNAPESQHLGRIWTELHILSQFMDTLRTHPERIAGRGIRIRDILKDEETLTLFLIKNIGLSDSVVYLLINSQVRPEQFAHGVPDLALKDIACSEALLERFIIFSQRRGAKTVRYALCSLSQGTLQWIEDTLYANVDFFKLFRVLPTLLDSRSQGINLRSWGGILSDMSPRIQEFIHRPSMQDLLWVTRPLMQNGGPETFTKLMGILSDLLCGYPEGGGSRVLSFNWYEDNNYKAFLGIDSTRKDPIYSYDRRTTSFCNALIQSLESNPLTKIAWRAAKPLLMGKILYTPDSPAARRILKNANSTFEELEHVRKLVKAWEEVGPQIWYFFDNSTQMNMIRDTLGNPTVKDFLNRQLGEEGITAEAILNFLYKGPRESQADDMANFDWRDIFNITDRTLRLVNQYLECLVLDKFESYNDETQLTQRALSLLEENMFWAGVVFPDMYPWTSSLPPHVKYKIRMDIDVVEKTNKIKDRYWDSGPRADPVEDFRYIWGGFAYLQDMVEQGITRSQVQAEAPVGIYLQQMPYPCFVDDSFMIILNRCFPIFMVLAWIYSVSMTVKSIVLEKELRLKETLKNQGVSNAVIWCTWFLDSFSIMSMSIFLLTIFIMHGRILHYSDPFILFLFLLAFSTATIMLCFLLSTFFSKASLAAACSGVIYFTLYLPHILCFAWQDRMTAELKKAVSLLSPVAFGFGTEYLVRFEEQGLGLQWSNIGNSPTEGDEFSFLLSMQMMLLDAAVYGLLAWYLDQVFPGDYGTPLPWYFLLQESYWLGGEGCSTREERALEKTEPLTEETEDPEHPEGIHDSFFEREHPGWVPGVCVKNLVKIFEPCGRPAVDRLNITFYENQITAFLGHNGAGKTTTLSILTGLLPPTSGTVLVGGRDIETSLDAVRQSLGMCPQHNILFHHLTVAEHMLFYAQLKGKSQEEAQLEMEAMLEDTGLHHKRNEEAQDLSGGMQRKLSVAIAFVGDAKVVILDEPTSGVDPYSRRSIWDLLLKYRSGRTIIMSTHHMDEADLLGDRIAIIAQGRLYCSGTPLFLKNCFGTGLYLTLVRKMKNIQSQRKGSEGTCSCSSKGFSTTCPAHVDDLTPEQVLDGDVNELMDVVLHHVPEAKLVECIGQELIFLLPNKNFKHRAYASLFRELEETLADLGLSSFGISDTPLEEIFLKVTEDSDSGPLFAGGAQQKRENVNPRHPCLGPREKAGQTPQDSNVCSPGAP
T1 sequence (P78363 1326-2273): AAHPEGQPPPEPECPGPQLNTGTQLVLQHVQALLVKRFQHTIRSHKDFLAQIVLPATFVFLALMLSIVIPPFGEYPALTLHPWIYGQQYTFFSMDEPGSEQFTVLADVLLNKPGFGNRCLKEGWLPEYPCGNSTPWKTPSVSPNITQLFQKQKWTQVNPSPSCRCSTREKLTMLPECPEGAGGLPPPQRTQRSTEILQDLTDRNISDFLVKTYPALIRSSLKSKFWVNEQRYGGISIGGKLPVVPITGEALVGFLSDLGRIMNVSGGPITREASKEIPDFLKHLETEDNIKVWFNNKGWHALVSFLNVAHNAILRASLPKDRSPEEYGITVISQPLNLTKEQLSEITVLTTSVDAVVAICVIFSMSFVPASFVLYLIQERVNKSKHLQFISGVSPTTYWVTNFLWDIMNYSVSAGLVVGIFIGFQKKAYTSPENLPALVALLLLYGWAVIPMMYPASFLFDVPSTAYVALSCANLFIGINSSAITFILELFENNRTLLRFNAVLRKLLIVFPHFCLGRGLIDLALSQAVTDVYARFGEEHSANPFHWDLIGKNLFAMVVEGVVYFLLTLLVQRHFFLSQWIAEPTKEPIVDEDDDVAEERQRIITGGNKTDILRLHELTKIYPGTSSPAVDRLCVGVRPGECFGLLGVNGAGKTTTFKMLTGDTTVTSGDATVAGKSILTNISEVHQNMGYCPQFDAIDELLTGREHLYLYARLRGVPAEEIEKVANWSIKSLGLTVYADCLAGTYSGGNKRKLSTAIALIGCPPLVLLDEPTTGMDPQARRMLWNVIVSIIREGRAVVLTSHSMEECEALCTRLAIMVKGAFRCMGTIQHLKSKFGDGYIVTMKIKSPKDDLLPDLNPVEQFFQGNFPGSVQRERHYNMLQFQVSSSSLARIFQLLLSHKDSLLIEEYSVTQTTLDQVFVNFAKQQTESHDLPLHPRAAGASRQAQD
Description: (§1) Preparation of Membranes—Membranes from transfected cells were prepared as described previously (Bungert, S., Molday, L. L., and Molday, R. S. (2001) J Biol Chem 276(26), 23539-46). In some experiments, the protocol was scaled down and the cell homogenate from one or two 10-cm dishes, after passing through a 26-gauge needle (6 times), was centrifuged on a discontinuous gradient consisting of 5% and 60% sucrose for 30 min at 30,000 rpm (60,000×g) in a TLS55 rotor (Beckman Optima TL ultracentrifuge).
(§2) 8-Azido-ATP Photoaffinity Labeling—Membranes (50-150 μg protein) in 50 μl of labeling buffer (20 mM Tris-HCl, pH 7.4, 140 mM NaCl, 5 mM MgCl2) were incubated with 1-4 μM 8-azido-[α-^32P]ATP (Perkin-Elmer Life Science; 20 Ci/mmol) on ice, with gentle shaking, under UV light (254 nm) for 10 min at a distance of 10 cm. Ice-cold 20 mM Tris-HCl, pH 7.4, was added and the membranes were collected by centrifugation (TLA45 rotor, 55000 g, 15 min). The membrane suspension (200 μl in TBS [Tris-HCl, pH 7.4, 140 mM NaCl]) was added to 200 μl of 2% Triton X-100 in TBS, pH 7.4). After 30 min on ice, the cleared extract was mixed with 25 μl antibody coupled to Sepharose 2B for 1-12 h at 4° C. The beads were washed 4 times in TBS containing 0.2% Triton X-100 and eluted twice, 30 μl each, in 4% SDS, 0.2% Triton X-100, TBS. […]

[2] = molecular target: T2, full-length ABCR (Homo sapiens, UniProt P78363); assay: as above; type: binding; set-up: Membranes from transfected cells expressing either full-length ABCR (lanes 1 & 2); expressed in transfected cells; host or cells: transfected cells (COS-1 or EBNA293); conditions: 1 mM ATP added prior to labeling with 1.5 μM 8-azido-[α-32P]ATP; FIG. 5A lane 2
Description: as §1, §2

[3] = molecular target: T3, ABCR (Homo sapiens, UniProt P78363); assay: 8-azido-ATP/ADP trapping in membranes from transfected cells; type: binding; conditions: 5 μM 8-azido-[α-32P]ATP, 37° C.; 800 μM orthovanadate, 50 μM all-trans retinal, or 10 mM MgATP in wash step
T3 construct: Membranes from transfected cells expressing either full-length ABCR (lanes 1 & 2) or co-expressing the N and C halves; expressed in transfected cells; host or cells: transfected cells (COS-1 or EBNA293)
Description: 8-Azido-ATP Trapping—Membranes were incubated with 5 [M 8-azido-[α-^32P]ATP in 50 μl of labeling buffer with or without 800 μM sodium orthovanadate for 10 min at 37° C. All-trans retinal and 50 μM DTT were added where indicated. Binding was stopped by the addition of ice-cold 20 mM Tris-HCl, pH 7.4, the membranes were collected by centrifugation and washed one more time. Samples exposed to orthovanadate were washed in the presence of 800 μM orthovanadate. In some experiments MgATP (10 mM) was included in the wash step, but had no effect. The membranes were suspended in 30 μl of 20 mM Tris-HCl, pH 7.4, irradiated with UV light for 10 min on ice, diluted to 200 μl with TBS, pH 7.4, and solubilized as described above for azido-ATP binding.
To gain more insight into the properties of the NBD of ABCR, trapping experiments were carried out using 8-azido-[α^32P]ATP.

[4] = molecular target: T4, individually expressed C half of ABCR (Homo sapiens, UniProt P78363); assay: Retinal-stimulated ATPase activity of purified protein reconstituted in lipid vesicles; type: biochemical; conditions: individually expressed in COS-1 cells
T4 construct: N-half (amino acids 1-1325) and C-half (amino acids 1326-2273) of ABCR; added initiator Met (ATG in the forward primer, read by me) (N); made in house; host or cells: COS-1
T4 sequence (P78363 1326-2273): T1 sequence (P78363 1326-2273)
Description: (§3) Membranes (from two 10 cm dishes) were solubilized in 0.5 ml of 1% Triton-X100 in Buffer A (140 mM NaCl, 20 mM Tris-HCl, pH 7.4) for 20 min on ice. For ATPase assays, the membrane preparation step was omitted and the cell suspension was solubilized directly in Buffer B (10 mg/ml soybean phospholipids, 10% glycerol, 1 mM dithiothreitol, 100 mM NaCl, 3 mM MgCl2, 50 mM NaHEPES, pH 7.4) containing 18 mM CHAPS. The supernatant after a 10 min centrifugation at 40,000 rpm (TLA100.4 rotor) was mixed with 50 μl Rim3F4 Sepharose 2B for 1 h at 4° C. The beads were washed 6 times in Buffer A containing 0.2% Triton X-100 or Buffer B containing 10 mM CHAPS and eluted with 4% SDS (for electrophoresis) or 0.2 mg/ml Rim3F4 peptide (for reconstitution and determination of ATPase activity). Purified protein (24 μl) was incubated with 6 μl of 50 mg/ml lipid (1:1 mixture of dioleoylphosphatidylethanolamine and brain polar lipid, by weight) and 3 μl n-octylglucoside for 30 min on ice. The mixture was diluted rapidly with 200 μl of Buffer C (1 mM dithiothreitol, 140 mM NaCl, 25 mM NaHEPES, pH 7.4) and passed through a 200 μl Extracti-gel column (Pierce). The flow-through containing the reconstituted protein was used for determination of ATPase activity.
(§4) ATPase activity was measured as described previously (Ahn, J., Wong, J. T., and Molday, R. S. (2000) J Biol Chem 275(27), 20399-405) using 50 μM [α^32P]ATP and thin layer chromatography. The all-trans retinal concentration was determined spectrophotometrically (λ383 nm=42.88 mM^−1 cm^−1). Protein concentration was estimated from the eluate before reconstitution by laser densitometry of Coomassie blue stained gels using bovine serum albumin as a standard. […] Direct protein measurements after reconstitution by densitometry of Western blots was about half of that in the eluate. […]
(§5) ATPase Activity of Expressed N and C Halves—The basal and retinal activated ATPase activity of full-length ABCR and the N and C halves individually or co-expressed in COS-1 cells was determined after immunoaffinity purification and reconstitution into lipid vesicles. […]

[5] = molecular target: T5, individually expressed N half of ABCR containing 1D4 epitope tag (N*) (Homo sapiens, UniProt P78363); assay: as above; type: biochemical; conditions: individually expressed in COS-1 cells, purified on Rho1D4-Sepharose
T5 construct: N-half (amino acids 1-1325) and C-half (amino acids 1326-2273) of ABCR; made in house; host or cells: COS-1
T5 sequence (P78363 1-1325): T1 sequence (P78363 1-1325)
Description: as §3, §4, §5

[6] = molecular target: T1, co-expressed N and C halves of ABCR; assay: as above; type: biochemical; conditions: co-expressed in COS-1 cells, purified on Rim 3F4 column, 50 μM [α32P]ATP
Description: as §3, §4, §5

[7] = molecular target: T2, full-length ABCR; assay: as above; type: biochemical; set-up: Membranes from transfected cells expressing either full-length ABCR (lanes 1 & 2) or co-expressing the N and C halves; expressed in transfected cells; host or cells: transfected cells (COS-1 or EBNA293); conditions: expressed in COS-1 cells, purified on Rim 3F4 column, 50 μM [α32P]ATP
Description: Membranes (from two 10 cm dishes) were solubilized in 0.5 ml of 1% Triton-X100 in Buffer A (140 mM NaCl, 20 mM Tris-HCl, pH 7.4) for 20 min on ice. For ATPase assays, the membrane preparation step was omitted and the cell suspension was solubilized directly in Buffer B (10 mg/ml soybean phospholipids, 10% glycerol, 1 mM dithiothreitol, 100 mM NaCl, 3 mM MgCl2, 50 mM NaHEPES, pH 7.4) containing 18 mM CHAPS. The supernatant after a 10 min centrifugation at 40,000 rpm (TLA100.4 rotor) was mixed with 50 μl Rim3F4 Sepharose 2B for 1 h at 4° C. The beads were washed 6 times in Buffer A containing 0.2% Triton X-100 or Buffer B containing 10 mM CHAPS and eluted with 4% SDS (for electrophoresis) or 0.2 mg/ml Rim3F4 peptide (for reconstitution and determination of ATPase activity). […]
ATPase activity was measured as described previously (Ahn, J., Wong, J. T., and Molday, R. S. (2000) J Biol Chem 275(27), 20399-405) using 50 μM [α^32P]ATP and thin layer chromatography. The all-trans retinal concentration was determined spectrophotometrically (λ383 nm=42.88 mM^−1 cm^−1). […]
as §5

T3 sequence (P78363 whole entry): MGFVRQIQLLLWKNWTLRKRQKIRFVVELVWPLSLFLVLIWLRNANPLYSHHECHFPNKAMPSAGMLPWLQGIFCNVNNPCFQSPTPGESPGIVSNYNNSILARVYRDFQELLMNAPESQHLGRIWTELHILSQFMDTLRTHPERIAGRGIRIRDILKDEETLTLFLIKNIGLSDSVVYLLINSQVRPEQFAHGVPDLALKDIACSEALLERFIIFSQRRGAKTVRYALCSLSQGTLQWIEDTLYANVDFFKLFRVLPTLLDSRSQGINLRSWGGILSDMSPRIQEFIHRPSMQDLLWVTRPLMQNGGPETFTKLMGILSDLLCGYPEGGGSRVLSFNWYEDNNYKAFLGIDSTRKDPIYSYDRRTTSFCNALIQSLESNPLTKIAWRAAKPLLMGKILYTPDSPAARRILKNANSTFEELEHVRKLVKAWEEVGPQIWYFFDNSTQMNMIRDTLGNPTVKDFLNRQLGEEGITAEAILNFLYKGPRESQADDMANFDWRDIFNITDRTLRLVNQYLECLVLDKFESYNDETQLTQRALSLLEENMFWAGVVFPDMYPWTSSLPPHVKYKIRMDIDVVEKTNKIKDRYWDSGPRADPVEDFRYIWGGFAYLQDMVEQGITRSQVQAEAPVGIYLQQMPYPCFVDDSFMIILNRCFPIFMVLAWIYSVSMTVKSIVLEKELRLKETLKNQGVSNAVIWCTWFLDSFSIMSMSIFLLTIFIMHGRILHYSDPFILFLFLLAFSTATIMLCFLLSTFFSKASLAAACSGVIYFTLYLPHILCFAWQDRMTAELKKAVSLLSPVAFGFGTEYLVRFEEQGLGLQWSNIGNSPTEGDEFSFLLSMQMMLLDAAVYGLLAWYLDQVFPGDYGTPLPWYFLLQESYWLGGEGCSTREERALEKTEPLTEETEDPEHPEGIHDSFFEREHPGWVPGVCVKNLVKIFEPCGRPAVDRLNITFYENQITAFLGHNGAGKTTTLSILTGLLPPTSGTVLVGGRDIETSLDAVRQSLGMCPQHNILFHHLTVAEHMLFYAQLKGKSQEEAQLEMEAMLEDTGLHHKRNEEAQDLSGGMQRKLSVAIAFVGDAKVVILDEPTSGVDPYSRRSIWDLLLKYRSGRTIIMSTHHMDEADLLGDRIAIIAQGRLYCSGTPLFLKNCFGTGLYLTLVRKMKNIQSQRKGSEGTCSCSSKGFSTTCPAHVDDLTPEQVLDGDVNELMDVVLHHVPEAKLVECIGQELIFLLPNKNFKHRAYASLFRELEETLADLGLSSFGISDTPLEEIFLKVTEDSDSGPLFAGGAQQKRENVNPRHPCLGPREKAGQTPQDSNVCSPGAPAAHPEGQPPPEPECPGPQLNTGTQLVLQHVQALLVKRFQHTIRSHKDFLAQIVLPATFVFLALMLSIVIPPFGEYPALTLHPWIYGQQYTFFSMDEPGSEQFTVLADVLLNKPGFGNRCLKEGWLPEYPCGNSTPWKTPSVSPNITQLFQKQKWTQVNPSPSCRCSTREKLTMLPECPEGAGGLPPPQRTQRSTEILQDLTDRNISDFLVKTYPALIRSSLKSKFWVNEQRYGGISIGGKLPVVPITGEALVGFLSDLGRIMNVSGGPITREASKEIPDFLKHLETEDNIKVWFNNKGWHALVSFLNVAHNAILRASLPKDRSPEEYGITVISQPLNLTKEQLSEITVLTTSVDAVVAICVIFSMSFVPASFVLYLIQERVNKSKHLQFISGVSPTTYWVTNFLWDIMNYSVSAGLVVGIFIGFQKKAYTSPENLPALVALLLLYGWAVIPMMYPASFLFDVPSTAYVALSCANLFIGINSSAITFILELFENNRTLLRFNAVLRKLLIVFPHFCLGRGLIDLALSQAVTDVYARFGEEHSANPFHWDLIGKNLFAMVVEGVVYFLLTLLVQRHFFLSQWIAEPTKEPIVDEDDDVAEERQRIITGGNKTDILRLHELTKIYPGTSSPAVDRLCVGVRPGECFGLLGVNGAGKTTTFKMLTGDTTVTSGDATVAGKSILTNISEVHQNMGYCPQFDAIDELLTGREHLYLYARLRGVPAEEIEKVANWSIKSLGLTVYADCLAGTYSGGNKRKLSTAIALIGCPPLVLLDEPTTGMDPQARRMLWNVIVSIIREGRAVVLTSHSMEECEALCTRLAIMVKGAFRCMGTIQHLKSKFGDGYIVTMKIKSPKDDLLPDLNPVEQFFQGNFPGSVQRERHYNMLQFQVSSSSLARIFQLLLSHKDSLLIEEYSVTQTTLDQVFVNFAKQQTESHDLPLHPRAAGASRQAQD
T2 sequence (P78363 whole entry): as above

Compound: Nc1ncnc2c1ncn2[C@@H]1O[C@H](COP(=O)(O)OP(=O)(O)OP(=O)(O)O)[C@@H](O)[C@H]1O [ATP]
- effect on 8-azido-ATP photoaffinity labeling [1]: essentially abolished
- effect on 8-azido-ATP photoaffinity labeling [2]: essentially abolished

Compound: Nc1ncnc2c1ncn2[C@@H]1O[C@H](COP(=O)(O)OP(=O)([O-])OP(=O)([O-])O)[C@@H](O)[C@H]1O.[Mg+2] [MgATP]
- effect on 8-azido ATP/ADP trapping [3]: had no effect

Compound: CC1=C(/C=C/C(C)=C/C=C/C(C)=C/C=O)C(C)(C)CCC1 [all-trans retinal]
- stimulation of ATPase activity by retinal [4]: not stimulated
- stimulation of ATPase activity by retinal [5]: not stimulated
- stimulation of ATPase activity by all-trans retinal [6]: 1-2 fold
- stimulation of ATPase activity by all-trans retinal [7]: 1-2 fold
- effect on 8-azido ATP/ADP trapping [3]: not dependent on sodium orthovanadate or influenced

Compound: [Na+].[Na+].[Na+].[O]=[V]([O-])([O-])[O-] [sodium orthovanadate]
- effect on 8-azido ATP/ADP trapping [3]: not dependent

From US20030224485A1, “Expression system for ABC transporters” (priority 2002, published 2003)
